Test results from the supplement of paper PMC5579334.

Tests used:
[1] = tested on: HS-PSS; test: % inhibition of CellTiter-Glo viability at highest tested concentration (72 h), relative to DMSO and benzethonium chloride controls; higher = more inhibition
Outline: (§1)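 MPNST cell lines and primary human Schwann cells were seeded at 750–1000 cells per well into 384-well plates preprinted with each compound at five concentrations in 10-fold steps, then incubated 72 h at 37 °C, 5% CO2. CellTiter-Glo ATP luminescence gave viability, scaled between vehicle and positive-control wells, with duplicates averaged where present. Curves were fitted with a four-parameter logistic model. Percent inhibition refers to the top concentration, while drug sensitivity score and relative IC50, censored at the top concentration, come from these fits.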

[2] = tested on: YST-1; test: as above
Outline: as §1

[3] = tested on: HS-Sch-2; test: as above
Outline: as §1

[4] = tested on: HS-PSS; test: drug sensitivity score (DSS, CellTox-Green cytotoxicity, 72 h) (DSS (dimensionless)); higher = more cytotoxic; extreme values may be limits of the assay
Outline: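 For 72 h at 37 °C, MPNST cell lines and primary human Schwann cells were exposed in 384-well plates to five 10-fold compound dilutions. CellTox-Green, added before seeding at a final 1:1000 dilution, gave fluorescence from DNA released by disrupted cells. Signals were scaled to vehicle and positive-control wells, cultures failing plate quality control were left out, and four-parameter logistic fits were applied. Relative IC50 and drug sensitivity score were derived from the fits, with IC50 censored at the top concentration.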

[5] = tested on: HS-PSS; test: drug sensitivity score (DSS, CellTiter-Glo viability, 72 h) (DSS (dimensionless)); higher = more sensitive; extreme values may be limits of the assay
Outline: as §1

[6] = tested on: YST-1; test: as above
Outline: as §1

[7] = tested on: HS-Sch-2; test: as above
Outline: as §1

Row | Compound | % inhibition [1] [%] | % inhibition [2] [%] | % inhibition [3] [%] | drug sensitivity score [4] | drug sensitivity score [5] | drug sensitivity score [6] | drug sensitivity score [7]
1 | COc1cc(N2CCN(C)CC2)ccc1Nc1nccc(-c2cn(C)c3cnccc23)n1 [AZ191] (max concentration tested 10000 nM) | 80.5 | 76.4 | 95.6 | 1.42 | 5.3 | 3.96 | 5.07
2 | CC(C)Oc1cc(Nc2nc(N[C@@H](C)c3ccc(F)cn3)ncc2Cl)n[nH]1 [AZ-23] (max concentration tested 1000 nM) | 12.4 | 26.5 | 21.1 | 0 | 0.29 | 1.96 | 1.29
3 | N[C@@H]1CCCN(c2c(/C=C3\SC(=O)NC3=O)cccc2-c2ccccc2)C1 [AZD1208] (max concentration tested 10000 nM) | -5.48 | 38.7 | -3.67 | 0 | 0 | 7.54 | 0
4 | CN(C)C(=O)c1ccc(S(=O)(=O)c2ccc(NC(=O)[C@@](C)(O)C(F)(F)F)c(Cl)c2)cc1 [AZD7545] (max concentration tested 10000 nM) | 57 | 2.29 | 17.4 | 0 | 2.45 | 0 | 0.76
5 | N#Cc1ccc2[nH]c(O)c(-c3ccc(CN4CCOCC4)cn3)c2c1 [AZD-1080] (max concentration tested 10000 nM) | 43.5 | 4.49 | 77.1 | 0 | 2.89 | 0 | 3.74
6 | NC1(C(=O)N[C@@H](CCO)c2ccc(Cl)cc2)CCN(c2ncnc3[nH]ccc23)CC1 [AZD-5363] (max concentration tested 10000 nM) | 20.3 | 56.9 | 66.5 | 0 | 0.45 | 4.35 | 3.33
7 | Cc1ncc(-c2ccnc(Nc3ccc(S(C)(=O)=O)cc3)n2)n1C(C)C [AZD-5438] (max concentration tested 10000 nM) | 72 | 99.2 | 100 | 0.3 | 12.4 | 9.62 | 8.28
8 | Cc1cc([C@@H](C)Nc2ccccc2C(=O)O)c2nc(N3CCOCC3)cc(=O)n2c1 [AZD-6482] (max concentration tested 2500 nM) | 9.25 | 17.1 | 0.36 | 0 | 0 | 0.53 | 0
9 | C[C@@H](Nc1cc(F)cc(F)c1)c1cc(C(=O)N(C)C)cc2c(=O)cc(N3CCOCC3)oc12 [AZD-8186] (max concentration tested 1000 nM) | -3.47 | 28.9 | -0.99 | 0 | 0 | 1.06 | 0
10 | Cc1cc(C(=O)NOCCO)c(Nc2ccc(I)cc2F)n(C)c1=O [AZD-8330] (max concentration tested 10000 nM) | 51.1 | 3.34 | 53.5 | 0 | 8.85 | 0 | 11.6
11 | CCN1CCN(Cc2ccc(Nc3ncc(F)c(-c4cc(F)c5nc(C)n(C(C)C)c5c4)n3)nc2)CC1 [Abemaciclib] (max concentration tested 2500 nM) | 22 | 28.3 | 31.6 | 0.89 | 1.78 | 6.03 | 1.05
12 | CN(C)Cc1c(C(=O)NCCOc2ccc(C(=O)NO)cc2)oc2ccccc12 [Abexinostat] (max concentration tested 10000 nM) | 96.2 | 101 | 101 | 7.74 | 16.5 | 24.9 | 20.5
13 | Cn1ncc(Cl)c1-c1cc(C(=O)N[C@H](CN)Cc2cccc(F)c2)sc1Cl [Afuresertib] (max concentration tested 1000 nM) | 13.3 | 32 | 1.85 | 0 | 0.07 | 1.39 | 0
14 | COc1cccc2c1C(=O)c1c(O)c3c(c(O)c1C2=O)C[C@@](O)(/C(CO)=N/NC(=O)CCCCCN1C(=O)C=CC1=O)C[C@@H]3O[C@H]1C[C@H](N)[C@H](O)[C@H](C)O1 [Aldoxorubicin] (max concentration tested 1000 nM) | 97.2 | 101 | 101 | 2.15 | 9.01 | 14.4 | 11
15 | CCc1cc2c(cc1N1CCC(N3CCOCC3)CC1)C(C)(C)c1[nH]c3cc(C#N)ccc3c1C2=O [Alectinib] (max concentration tested 1000 nM) | 42.8 | 17.5 | 2.24 | 0 | 7.01 | 0.28 | 0
16 | Cc1nc(NC(=O)N2CCC[C@H]2C(N)=O)sc1-c1ccnc(C(C)(C)C(F)(F)F)c1 [Alpelisib] (max concentration tested 2500 nM) | 13 | 63.6 | 21.2 | 0 | 0.35 | 7.32 | 1.18
17 | COc1cc(NS(C)(=O)=O)ccc1Nc1c2ccccc2nc2ccccc12 [Amsacrine] (max concentration tested 10000 nM) | 55 | 86.6 | 81.6 | 1.27 | 5.76 | 15.6 | 11.1

Row | Compound | % inhibition [1] [%] | % inhibition [2] [%] | % inhibition [3] [%] | drug sensitivity score [4] | drug sensitivity score [5] | drug sensitivity score [6] | drug sensitivity score [7]
18 | S=C(NCc1ccc2c(c1)OCO2)N1CCN(c2ncnc3c2oc2ccccc23)CC1 [Amuvatinib] (max concentration tested 10000 nM) | 83.6 | 31.3 | 86.5 | 0 | 9.62 | 1.22 | 6.77
19 | N#CC1(c2ccc(NC(=O)c3cccnc3NCc3ccncc3)cc2)CCCC1 [Apatinib] (max concentration tested 10000 nM) | 11.6 | 18.9 | -2.67 | 0 | 0 | 1.19 | 0
20 | Cc1c(CN2CCN(C(=O)[C@H](C)O)CC2)sc2c(N3CCOCC3)nc(-c3cnc(N)nc3)nc12 [Apitolisib] (max concentration tested 10000 nM) | 64.5 | 86.9 | 71.5 | 0 | 8.39 | 18.3 | 9.07
21 | Cc1cc(-c2nc(-c3ccc(OC(F)(F)F)cc3)no2)nn1Cc1ccnc(N2CCN(C3CC3)CC2)c1 [BAY 87-2243] (max concentration tested 1000 nM) | 74.5 | 15.5 | 65.9 | 0 | 31.7 | 2.18 | 26.4
22 | Nc1nc(Nc2ccc3c(c2)CC[C@@H](N2CCCC2)CC3)nn1-c1cc2c(nn1)-c1ccccc1CCC2 [BGB324] (max concentration tested 10000 nM) | 23.7 | 99.3 | 99.5 | 0 | 2.95 | 7.59 | 14.4
23 | O=C(Nc1cccc(Nc2ncc(Br)c(NCCc3cnc[nH]3)n2)c1)N1CCCC1 [BX-912] (max concentration tested 10000 nM) | 44.8 | 67 | 78.4 | 0 | 3.51 | 8.47 | 4.94
24 | Cc1ccc(NC(=O)c2ccc(CN3CC[C@H](N(C)C)C3)c(C(F)(F)F)c2)cc1Nc1nccc(-c2cncnc2)n1 [Bafetinib] (max concentration tested 1000 nM) | -10.6 | 28.5 | 16.8 | 0 | 0 | 1.49 | 0.33
25 | CCS(=O)(=O)N1CC(CC#N)(n2cc(-c3ncnc4[nH]ccc34)cn2)C1 [Baricitinib] (max concentration tested 2500 nM) | 1.87 | -0.02 | 4.94 | 0 | 0 | 0 | 0
26 | N#CC(c1ccnc(OCc2ccc(CN3CCOCC3)cc2)n1)c1nc2ccccc2s1 (stereo not drawn) [Bentamapimod] (max concentration tested 10000 nM) | 75.6 | 26.9 | 58.6 | 1.1 | 6.75 | 2.11 | 3.69
27 | Cn1cnc2c(F)c(Nc3ccc(Br)cc3F)c(C(=O)NOCCO)cc21 [Binimetinib] (max concentration tested 1000 nM) | 7.79 | 6.26 | 21.1 | 0 | 0 | 0 | 0.81
28 | CC[C@H](NC(=O)[C@H](C)NC)C(=O)N1C[C@@H](O)C[C@H]1Cc1c(-c2[nH]c3cc(F)ccc3c2C[C@@H]2C[C@H](O)CN2C(=O)[C@H](CC)NC(=O)[C@H](C)NC)[nH]c2cc(F)ccc12 [Birinapant] (max concentration tested 1000 nM) | 10.7 | 2.35 | 6.12 | 0 | 0 | 0 | 0
29 | CN(C)c1cc2c(cc1Sc1nc3c(N)nccc3n1CCNCC(C)(C)C)OCO2 [CUDC-305] (max concentration tested 10000 nM) | 84.7 | 81.7 | 101 | 4.43 | 13.1 | 12.6 | 19.6
30 | COc1ccc(-c2nc(N3CCOCC3)c3sc(CN(C)c4ncc(C(=O)NO)cn4)cc3n2)cn1 [CUDC-907] (max concentration tested 10000 nM) | 98.6 | 100 | 99.5 | 19.2 | 31.6 | 40.4 | 31.9
31 | Cc1nc(N)sc1-c1ccnc(Nc2ccc(N3CCOCC3)cc2)n1 [CYC-116] (max concentration tested 10000 nM) | 65.9 | 58.8 | 54.2 | 0 | 6.5 | 8.36 | 4.97
32 | CO[C@H]1C(=O)[C@]2(C)[C@@H](OC)C[C@H]3OC[C@@]3(OC(C)=O)[C@H]2[C@H](OC(=O)c2ccccc2)[C@]2(O)C[C@H](OC(=O)[C@H](O)[C@@H](NC(=O)OC(C)(C)C)c3ccccc3)C(C)=C1C2(C)C [Cabazitaxel] (max concentration tested 1000 nM) | 41.5 | 74 | 93.5 | 0.1 | 1.5 | 30.7 | 33.6
33 | CC[C@@]1(O)C(=O)OCc2c1cc1n(c2=O)Cc2cc3ccccc3nc2-1 [Camptothecin] (max concentration tested 5000 nM) | 93.1 | 99.6 | 99.9 | 10.2 | 14.9 | 23.6 | 22.2
34 | CCS(=O)(=O)N1CCN(c2ccc(Nc3ncc(C(N)=O)c(NC4CC4)n3)cc2)CC1 [Cerdulatinib] (max concentration tested 10000 nM) | 40.3 | -4.68 | 58.9 | 0 | 3.47 | 0 | 4.87
